Structures can show the parent of a compound that is named as a salt.
What was measured:
[1] = system: Staphylococcus aureus MW2 delta-mecA (mecA-); assay: IC50 (growth, competition assay); conditions: cefoxitin: subinhibitory
Procedure, shortened: (§1)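 Two fluorescent S. aureus MW2 strains, one carrying and one lacking the resistance gene, were pre-induced, mixed 1:1 and grown unshaken in LB in 1536-well plates for 20 h at 37 °C and 90% humidity with a subinhibitory drug dose set each day. Compounds were tested on five- or nine-point 2-fold gradients in two dye-swapped replicates. DsRed (540/590) and GFP (485/520) signals were scaled per plate between the medians of single-strain controls, and No Treatment was then set to 0.5. For each strain, IC50 was taken as the dose that halved the No Treatment signal, or else the maximal signal.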

[2] = system: Staphylococcus aureus MW2 (mecA+); assay: IC50 (growth, competition assay); conditions: cefoxitin: subinhibitory
Procedure, shortened: as §1

SMILES: O=C(/C=C/c1ccc(O)cc1)c1ccc(O)cc1O [Isoliquiritigenin]
- IC50 ([1]; fluorescent label: DsRed): 27.5 µM
- IC50 ([1]; fluorescent label: GFP): 17 µM
- IC50 ([2]; fluorescent label: DsRed): 130 µM
- IC50 ([2]; fluorescent label: GFP): > 150 µM

SMILES: CCOC(=O)C1=C(C)NC(C)=C(C(=O)OC)C1c1cccc(Cl)c1Cl (centres undefined) [PLENDIL]
- IC50 ([1]; fluorescent label: DsRed): < 9.85 µM
- IC50 ([1]; fluorescent label: GFP): < 9.85 µM
- IC50 ([2]; fluorescent label: DsRed): 29.9 µM
- IC50 ([2]; fluorescent label: GFP): 30 µM

SMILES: O=C(OC[C@H]1O[C@@H](OC(=O)c2cc(O)c(O)c(OC(=O)c3cc(O)c(O)c(O)c3)c2)[C@H](OC(=O)c2cc(O)c(O)c(OC(=O)c3cc(O)c(O)c(O)c3)c2)[C@@H](OC(=O)c2cc(O)c(O)c(OC(=O)c3cc(O)c(O)c(O)c3)c2)[C@@H]1OC(=O)c1cc(O)c(O)c(OC(=O)c2cc(O)c(O)c(O)c2)c1)c1cc(O)c(O)c(OC(=O)c2cc(O)c(O)c(O)c2)c1 [TANNIC ACID]
- IC50 ([1]; fluorescent label: DsRed): 44 µM
- IC50 ([1]; fluorescent label: GFP): 55.3 µM
- IC50 ([2]; fluorescent label: DsRed): 57 µM
- IC50 ([2]; fluorescent label: GFP): 57.2 µM

SMILES: CC(=O)OCC1=C(C(=O)O)N2C(=O)[C@@H](NC(=O)CSc3ccncc3)[C@H]2SC1 [CEFADYL]
- IC50 ([1]; fluorescent label: DsRed): < 9.85 µM
- IC50 ([1]; fluorescent label: GFP): < 9.85 µM
- IC50 ([2]; fluorescent label: DsRed): < 9.85 µM
- IC50 ([2]; fluorescent label: GFP): < 9.85 µM

SMILES: CC(=O)O[C@H]1C[C@@]2(C)[C@@H](C[C@@H](O)[C@H]3[C@@]4(C)CC[C@@H](O)[C@@H](C)[C@@H]4CC[C@@]32C)/C1=C(\CCC=C(C)C)C(=O)O [Fusidic acid sodium]
- IC50 ([1]; fluorescent label: DsRed): < 9.85 µM
- IC50 ([1]; fluorescent label: GFP): < 9.85 µM
- IC50 ([2]; fluorescent label: DsRed): < 9.85 µM
- IC50 ([2]; fluorescent label: GFP): < 9.85 µM

SMILES: Cc1oc(=O)oc1CN1CCN(c2cc3c(cc2F)c(=O)c(C(=O)O)c2n3C(C)S2)CC1 (centres undefined) [QUISNON]
- IC50 ([1]; fluorescent label: DsRed): < 9.85 µM
- IC50 ([1]; fluorescent label: GFP): < 9.85 µM
- IC50 ([2]; fluorescent label: DsRed): < 9.85 µM
- IC50 ([2]; fluorescent label: GFP): < 9.85 µM

SMILES: CN[C@@H]1[C@@H](O)[C@@H](O[C@@H]2[C@@H](O)[C@H](O[C@H]3O[C@H]([C@@H](C)O)[C@@H](O)[C@H](O)[C@H]3N)[C@@H](N)C[C@H]2N)OC[C@]1(C)O [GENETICIN]
- IC50 ([1]; fluorescent label: DsRed): < 9.85 µM
- IC50 ([1]; fluorescent label: GFP): 12.4 µM
- IC50 ([2]; fluorescent label: DsRed): < 9.85 µM
- IC50 ([2]; fluorescent label: GFP): 12.5 µM

SMILES: CCCCCCCCCCCCCCCC(=O)OC(CC(=O)O)C[N+](C)(C)C (racemic) [Palmitoyl-DL-Carnitine chloride]
- IC50 ([1]; fluorescent label: DsRed): < 9.85 µM
- IC50 ([1]; fluorescent label: GFP): < 9.85 µM
- IC50 ([2]; fluorescent label: DsRed): 12.1 µM
- IC50 ([2]; fluorescent label: GFP): 14.3 µM

SMILES: CSc1ccc2c(c1)C(N1CCN(C)CC1)Cc1ccccc1S2 (centres undefined) [METITEPINE MESYLATE]
- IC50 ([1]; fluorescent label: DsRed): 30.8 µM
- IC50 ([1]; fluorescent label: GFP): 17.8 µM
- IC50 ([2]; fluorescent label: DsRed): 56.9 µM
- IC50 ([2]; fluorescent label: GFP): 84.8 µM

SMILES: COc1cc(C)c(C(=O)Oc2cc(C)c(C(=O)O)c(O)c2C)c(OC)c1C [DIFFRACTAIC ACID]
- IC50 ([1]; fluorescent label: DsRed): 12.8 µM
- IC50 ([1]; fluorescent label: GFP): 15.7 µM
- IC50 ([2]; fluorescent label: DsRed): 31 µM
- IC50 ([2]; fluorescent label: GFP): 27.5 µM

SMILES: Oc1ccc2ccccc2c1SSc1c(O)ccc2ccccc12 [IPA-3]
- IC50 ([1]; fluorescent label: DsRed): < 9.85 µM
- IC50 ([1]; fluorescent label: GFP): < 9.85 µM
- IC50 ([2]; fluorescent label: DsRed): < 9.85 µM
- IC50 ([2]; fluorescent label: GFP): < 9.85 µM

SMILES: COc1ccc(CCN(C)CCCOc2ccc(S(=O)(=O)c3c(C(C)C)n(C)c4ccccc34)cc2)cc1OC
- IC50 ([1]; fluorescent label: DsRed): < 9.85 µM
- IC50 ([1]; fluorescent label: GFP): < 9.85 µM
- IC50 ([2]; fluorescent label: DsRed): 14.8 µM
- IC50 ([2]; fluorescent label: GFP): 14.9 µM

SMILES: O=C(Nc1ccc(C(=O)O)c(O)c1)c1ccccc1 [THERAPAS]
- IC50 ([1]; fluorescent label: DsRed): 17.6 µM
- IC50 ([1]; fluorescent label: GFP): 11.8 µM
- IC50 ([2]; fluorescent label: DsRed): 29.8 µM
- IC50 ([2]; fluorescent label: GFP): 29.3 µM

SMILES: CCCCCCCCCCCCCCCCOP(=O)([O-])OCC[N+](C)(C)C [MILTEX]
- IC50 ([1]; fluorescent label: DsRed): 31.1 µM
- IC50 ([1]; fluorescent label: GFP): 28.1 µM
- IC50 ([2]; fluorescent label: DsRed): 35.2 µM
- IC50 ([2]; fluorescent label: GFP): 33.7 µM

SMILES: CCC(=O)Nc1cccc(Oc2nc(Nc3ccc(N4CCN(C)CC4)cc3OC)ncc2Cl)c1 [WZ4003]
- IC50 ([1]; fluorescent label: DsRed): > 150 µM
- IC50 ([1]; fluorescent label: GFP): > 150 µM
- IC50 ([2]; fluorescent label: DsRed): > 150 µM
- IC50 ([2]; fluorescent label: GFP): > 150 µM

SMILES: O=C(Nc1ccc([N+](=O)[O-])cc1Cl)c1cc(Cl)ccc1O [Niclosamide]
- IC50 ([1]; fluorescent label: DsRed): < 9.85 µM
- IC50 ([1]; fluorescent label: GFP): 73.8 µM
- IC50 ([2]; fluorescent label: DsRed): 113 µM
- IC50 ([2]; fluorescent label: GFP): < 9.85 µM

SMILES: CSc1nc2cc(Cl)c(Oc3cccc(Cl)c3Cl)cc2[nH]1 [TRICLABENDAZOLE]
- IC50 ([1]; fluorescent label: DsRed): < 9.85 µM
- IC50 ([1]; fluorescent label: GFP): < 9.85 µM
- IC50 ([2]; fluorescent label: DsRed): 14.4 µM
- IC50 ([2]; fluorescent label: GFP): 13.9 µM

SMILES: CC[C@H]1OC(=O)[C@H](C)[C@@H](O[C@H]2C[C@@](C)(OC)[C@@H](O)[C@H](C)O2)[C@H](C)[C@@H](O[C@@H]2O[C@H](C)C[C@H](N(C)C)[C@H]2O)[C@](C)(O)C[C@@H](C)CN(C)[C@H](C)[C@@H](O)[C@]1(C)O [ZITHROMAX]
- IC50 ([1]; fluorescent label: DsRed): < 9.85 µM
- IC50 ([1]; fluorescent label: GFP): < 9.85 µM
- IC50 ([2]; fluorescent label: DsRed): < 9.85 µM
- IC50 ([2]; fluorescent label: GFP): 15.7 µM

SMILES: O=C(O)c1ccc2cc(-c3ccc(O)c(C45CC6CC(CC(C6)C4)C5)c3)ccc2c1 [CD 437]
- IC50 ([1]; fluorescent label: DsRed): < 9.85 µM
- IC50 ([1]; fluorescent label: GFP): < 9.85 µM
- IC50 ([2]; fluorescent label: DsRed): < 9.85 µM
- IC50 ([2]; fluorescent label: GFP): < 9.85 µM

SMILES: CC(C)(C)c1ccc(C(=O)CCCN2CCC(OC(c3ccccc3)c3ccccc3)CC2)cc1 [Ebastine]
- IC50 ([1]; fluorescent label: DsRed): < 9.85 µM
- IC50 ([1]; fluorescent label: GFP): < 9.85 µM
- IC50 ([2]; fluorescent label: DsRed): 16.4 µM
- IC50 ([2]; fluorescent label: GFP): 15.3 µM

SMILES: O=Nc1c(-c2c(O)[nH]c3cc(Br)ccc23)[nH]c2ccccc12 [BIO]
- IC50 ([1]; fluorescent label: DsRed): < 9.85 µM
- IC50 ([1]; fluorescent label: GFP): < 9.85 µM
- IC50 ([2]; fluorescent label: DsRed): < 9.85 µM
- IC50 ([2]; fluorescent label: GFP): < 9.85 µM

From the supplement of paper PMC7695840
